In the assay the test system is L1210 leukemia ip in BDF1 mice, survival T/C. In words: NCI In Vivo Anticancer Drug Screen. Data for tumor model L1210 Leukemia (intraperitoneal) in B6D2F1 (BDF1) mice. As to conditions: endpoint: mean survival time, higher = longer survival. Put shortly: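 Mice bearing the transplanted tumor received compound or vehicle. Survival of the treated group was divided by that of the vehicle-treated control group to give the ratio.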

Setting [1] is: dose: 100.0 mg/kg/injection, schedule: Q04DX002 (ip), vehicle: saline.
Setting [2] is: dose: 100.0 mg/kg/injection, schedule: Q01DX009 (ip), vehicle: Klucel (hydroxypropylcellulose) (HPC).
[3] abbreviates: dose: 200.0 mg/kg/injection, schedule: Q01DX009 (ip), vehicle: Klucel (hydroxypropylcellulose) (HPC).
[4] abbreviates: dose: 400.0 mg/kg/injection, schedule: Q01DX009 (ip), vehicle: Klucel (hydroxypropylcellulose) (HPC).
[5] abbreviates: dose: 100.0 mg/kg/injection, schedule: Q04DX003 (ip), vehicle: saline with Tween-80.
[6] abbreviates: dose: 200.0 mg/kg/injection, schedule: Q04DX003 (ip), vehicle: saline with Tween-80.
The mark [7] stands for this setting: dose: 400.0 mg/kg/injection, schedule: Q04DX003 (ip), vehicle: saline with Tween-80.
Setting [8] is: dose: 100.0 mg/kg/injection, schedule: Q04DX003 (ip), vehicle: Klucel (hydroxypropylcellulose) (HPC).
[9] abbreviates: dose: 200.0 mg/kg/injection, schedule: Q04DX003 (ip), vehicle: Klucel (hydroxypropylcellulose) (HPC).
Setting [10] is: dose: 400.0 mg/kg/injection, schedule: Q04DX003 (ip), vehicle: Klucel (hydroxypropylcellulose) (HPC).
Where [11] appears, read: dose: 75.0 mg/kg/injection, schedule: Q01DX001 (ip), vehicle: other.
[12] abbreviates: dose: 100.0 mg/kg/injection, schedule: Q01DX001 (ip), vehicle: Klucel (hydroxypropylcellulose) (HPC).
Setting [13] is: dose: 200.0 mg/kg/injection, schedule: Q01DX001 (ip), vehicle: Klucel (hydroxypropylcellulose) (HPC).

Where “and” joins values, the source holds several entries; their conditions need not be identical. Equal entries are not always repeated. Inconclusive results and toxic doses are left out.

Regarding `CC(C)c1ccc2cc(C(C)C)ccc2c1`, the T/C (dose: 100.0 mg/kg/injection, schedule: Q01DX009 (ip), vehicle: saline with Tween-80) is 107 % of control; the T/C (dose: 200.0 mg/kg/injection, schedule: Q01DX009 (ip), vehicle: saline with Tween-80) is 92 % of control; the T/C (dose: 400.0 mg/kg/injection, schedule: Q01DX009 (ip), vehicle: saline with Tween-80) was 92 % of control.

As for `CCN(CC)CC(=O)NC(CCN(C)C)c1cccc2ccccc12` (stereo unspecified), the T/C by setting is: (dose: 25.0 mg/kg/injection, schedule: Q04DX002 (ip), vehicle: saline) 103 % of control; (dose: 50.0 mg/kg/injection, schedule: Q04DX002 (ip), vehicle: saline) 103 % of control; under setting [1], 98 % of control.

Regarding `NCCOP(=O)(O)OCC1OC(n2cnc3c(N)ncnc32)C(O)C1O` (stereo unspecified), the T/C (dose: 100.0 mg/kg/injection, schedule: Q01DX005 (ip), vehicle: saline) is 92 % of control and the T/C (dose: 200.0 mg/kg/injection, schedule: Q01DX005 (ip), vehicle: saline) is 92 % of control.

Regarding `O=C(N/N=C/c1ccccc1O)c1ccccc1NC(=O)C1CC1`, the T/C was 104 % of control under setting [2], 95 % of control under setting [3] and 101 % of control under setting [4].

For `CC12CC3CC(Br)(C1)CC(C(=O)O)(C3)C2` (stereo unspecified), the T/C (dose: 50.0 mg/kg/injection, schedule: Q01DX009 (ip), vehicle: saline) is 103 % of control; the T/C (dose: 100.0 mg/kg/injection, schedule: Q01DX009 (ip), vehicle: saline) was 96 % of control; the T/C (dose: 100.0 mg/kg/injection, schedule: Q04DX003 (ip), vehicle: saline) is 103 % of control; the T/C (dose: 200.0 mg/kg/injection, schedule: Q01DX009 (ip), vehicle: saline) was 91 % of control; the T/C (dose: 200.0 mg/kg/injection, schedule: Q04DX003 (ip), vehicle: saline) is 101 % of control; the T/C (dose: 400.0 mg/kg/injection, schedule: Q04DX003 (ip), vehicle: saline) was 110 % of control.

With `Clc1[nH]nc2ccccc12`, the T/C is 101 % of control (dose: 25.0 mg/kg/injection, schedule: Q01DX009 (ip), vehicle: saline sonified); 93 % of control (dose: 50.0 mg/kg/injection, schedule: Q01DX009 (ip), vehicle: saline sonified); 91 % of control (dose: 100.0 mg/kg/injection, schedule: Q01DX001 (ip), vehicle: saline sonified); 97 % of control (dose: 100.0 mg/kg/injection, schedule: Q01DX009 (ip), vehicle: saline sonified).

`CC1=C(C)CC(/C(=N\Nc2ccc([N+](=O)[O-])cc2[N+](=O)[O-])c2ccccc2)CC1` (stereo unspecified): the T/C runs as follows: (dose: 100.0 mg/kg/injection, schedule: Q01DX001 (ip), vehicle: saline with Tween-80) 89 % of control; (dose: 200.0 mg/kg/injection, schedule: Q01DX001 (ip), vehicle: saline with Tween-80) 89 % of control; (dose: 400.0 mg/kg/injection, schedule: Q01DX001 (ip), vehicle: saline with Tween-80) 96 % of control.

Consider `COc1cccc2c1C(=O)c1c(O)c3c(c(O)c1C2=O)C[C@@](O)(C(=O)COC(=O)c1cccnc1)C[C@@H]3OC1CC(N)C(O)C(C)O1` (stereo partly specified), for which the T/C reads like this: (dose: 1.6 mg/kg/injection, schedule: Q01DX009 (ip), vehicle: saline) 153 % of control; (dose: 2.4 mg/kg/injection, schedule: Q01DX009 (ip), vehicle: saline) 153 % of control.

For the molecule `Cc1ccc(N=Cc2cc(I)cc(I)c2O)cc1.Cc1ccc(N=Cc2cc(I)cc(I)c2O)cc1.[Co]`, the T/C was 92 % of control under setting [5]; 102 % of control and 91 % of control under setting [6]; 96 % of control and 89 % of control under setting [7].

Consider `CNC(=O)Oc1ccc(N=Nc2ccccc2)cc1`, for which the T/C runs as follows: (dose: 100.0 mg/kg/injection, schedule: Q01DX001 (ip), vehicle: other) 96 % of control; (dose: 200.0 mg/kg/injection, schedule: Q01DX001 (ip), vehicle: other) 96 % of control; (dose: 400.0 mg/kg/injection, schedule: Q01DX001 (ip), vehicle: other) 96 % of control.

Consider `CC(NC(=O)NCCCl)c1cccc2ccccc12` (stereo unspecified), for which the T/C runs as follows: under setting [8], 102 % of control; under setting [9], 103 % of control; under setting [10], 95 % of control.

In the case of `OCCCN=Cc1ccccc1O.OCCCN=Cc1ccccc1O.[Cu]`, the T/C reads like this: (dose: 9.5 mg/kg/injection, schedule: Q01DX001 (ip), vehicle: other) 92 % of control; (dose: 19.0 mg/kg/injection, schedule: Q01DX001 (ip), vehicle: other) 97 % of control; (dose: 38.0 mg/kg/injection, schedule: Q01DX001 (ip), vehicle: other) 100 % of control; under setting [11], 114 % of control.

For the molecule `COc1ccc([N+](=O)[O-])c2c(C)cc(=O)[nH]c12`, the T/C under setting [12] was 100 % of control; the T/C under setting [2] is 104 % of control; the T/C under setting [13] is 94 % of control; the T/C under setting [3] is 97 % of control; the T/C (dose: 400.0 mg/kg/injection, schedule: Q01DX001 (ip), vehicle: Klucel (hydroxypropylcellulose) (HPC)) was 94 % of control.

On to `CN(C)N=Nc1ccccc1C(F)(F)F`, for which the T/C is 109 % of control (dose: 50.0 mg/kg/injection, schedule: Q01DX009 (ip), vehicle: Klucel (hydroxypropylcellulose) (HPC)); 103 % of control and 107 % of control under setting [2]; 104 % of control under setting [8]; 107 % of control and 108 % of control under setting [3]; 104 % of control under setting [9]; 111 % of control and 114 % of control under setting [4]. Under setting [10], the T/C was 109 % of control.

Turning to `CN(C)CC1CCC(CN(C)C)C1=O` (stereo unspecified), the T/C was 106 % of control (dose: 9.38 mg/kg/injection, schedule: Q01DX001 (ip), vehicle: other); 104 % of control (dose: 9.38 mg/kg/injection, schedule: Q01DX001 (ip), vehicle: saline); 101 % of control (dose: 18.75 mg/kg/injection, schedule: Q01DX001 (ip), vehicle: other); 103 % of control (dose: 18.75 mg/kg/injection, schedule: Q01DX001 (ip), vehicle: saline); 115 % of control (dose: 37.5 mg/kg/injection, schedule: Q01DX001 (ip), vehicle: other).

For `COc1ccc2c(c1)-c1c(ccc(OC)c1O)CC(c1ccccc1)[N+](C)(C)CC2` (stereo unspecified), the T/C (dose: 6.25 mg/kg/injection, schedule: Q01DX001 (ip), vehicle: saline) was 96 % of control; the T/C (dose: 12.5 mg/kg/injection, schedule: Q01DX001 (ip), vehicle: saline) is 96 % of control; the T/C (dose: 25.0 mg/kg/injection, schedule: Q01DX001 (ip), vehicle: saline) is 107 % of control.

With `Cc1cccn1C(C)c1ccccc1` (stereo unspecified), the T/C is 97 % of control under setting [5], 94 % of control under setting [6] and 97 % of control under setting [7].

On to `CC(C)(C)C(=O)Nc1ccc(NS(=O)(=O)c2ccccc2)c(Cl)c1`, for which the T/C was 108 % of control (dose: 50.0 mg/kg/injection, schedule: Q01DX001 (ip), vehicle: Klucel (hydroxypropylcellulose) (HPC)); 97 % of control under setting [12]; 109 % of control under setting [13].

Regarding `C=CCO[Si](OCC=C)(OCC=C)OCC=C`, the T/C reads like this: under setting [11], 101 % of control; (dose: 150.0 mg/kg/injection, schedule: Q01DX001 (ip), vehicle: other) 98 % of control.

For the molecule `c1ccc(-c2cc3c(cc2-c2ccccc2)C(c2ccccc2)(c2ccccc2)c2nc4ccccc4nc2-3)cc1`, the T/C reads like this: under setting [5], 95 % of control; under setting [6], 93 % of control; under setting [7], 91 % of control.

Take `CCC(O)C(C)CO` (stereo unspecified): the T/C was 103 % of control (dose: 100.0 mg/kg/injection, schedule: Q01DX001 (ip), vehicle: saline); 121 % of control (dose: 200.0 mg/kg/injection, schedule: Q01DX001 (ip), vehicle: saline); 97 % of control (dose: 400.0 mg/kg/injection, schedule: Q01DX001 (ip), vehicle: saline).

For `CC(C)CCOC(=O)C1OC1(C)c1ccccc1` (stereo unspecified), the T/C under setting [1] is 101 % of control; the T/C (dose: 200.0 mg/kg/injection, schedule: Q04DX002 (ip), vehicle: saline) is 93 % of control; the T/C (dose: 400.0 mg/kg/injection, schedule: Q04DX002 (ip), vehicle: saline) is 112 % of control.

Values taken from PubChem BioAssay AID248 (DTP/NCI, 2004).
